Counter-ions that a name gives are not always drawn.
molecular target: T1, human EP4 (hEP4) receptor (Homo sapiens, UniProt P35408); experiment: In vitro human EP4 functional antagonist activity using BRET biosensors (cAMP EPAC biosensor, TCS2510 stimulation); assay type: cell-based; details: antagonist activity vs EC60 TCS2510, hEP4 in HEK-293 T cells
T1 construct: expressed in transfected cells; host or cells: HEK-293 T cells, transient co-transfection with polyethylenimine
Method in brief: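 Antagonism measured as inhibition of EC60 TCS2510-induced cAMP BRET signal (EPAC luciferase/GFP sensor) in transiently hEP4-expressing HEK-293T cells, following 5 min compound preincubation and 10 min luminescence recording. Plates equilibrated 1 h at 22 °C in HEPES buffer; 10 concentrations over 4.5 logs, duplicate in two independent experiments, sigmoidal variable-slope IC50.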

T1 sequence (P35408 whole entry): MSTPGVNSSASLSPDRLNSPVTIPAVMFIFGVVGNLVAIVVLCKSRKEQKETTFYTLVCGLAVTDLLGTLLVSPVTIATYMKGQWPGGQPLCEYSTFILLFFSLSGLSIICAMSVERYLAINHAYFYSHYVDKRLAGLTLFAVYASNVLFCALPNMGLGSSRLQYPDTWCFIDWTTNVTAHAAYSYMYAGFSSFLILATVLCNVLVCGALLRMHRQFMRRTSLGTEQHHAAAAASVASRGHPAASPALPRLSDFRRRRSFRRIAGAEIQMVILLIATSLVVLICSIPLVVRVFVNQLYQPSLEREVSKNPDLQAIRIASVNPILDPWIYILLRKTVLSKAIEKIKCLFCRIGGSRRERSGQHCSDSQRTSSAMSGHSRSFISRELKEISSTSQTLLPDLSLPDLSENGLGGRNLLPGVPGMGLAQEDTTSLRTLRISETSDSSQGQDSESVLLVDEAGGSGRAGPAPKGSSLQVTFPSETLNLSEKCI

| IC50 [nM] | SMILES |
| --- | --- |
| < 1000 | C[C@H](NC(=O)C1(c2cccc(OCC3CCCCC3)n2)CCCC1)c1ccc(C(=O)O)cc1 [Example 123, 4-[(1S)-1-[[1-[6-(Cyclohexylmethoxy)-2-pyridyl]cyclopentanecarbonyl]amino]ethyl]benzoic acid] |
| < 1000 | O=C(O)c1ccc(C2(NC(=O)C3(N(CCOc4ccccc4)CC4CC4)CCOCC3)CC2)cc1 [Example 27, 4-[1-[[4-[Cyclopropylmethyl(2-phenoxyethyl)amino]tetrahydropyran-4-carbonyl]amino]cyclopropyl]benzoic acid, hydrochloride] |
| < 100 | C[C@H](NC(=O)C1(N2CC[C@@H](Oc3cccc(Cl)c3)C2)CCC(F)(F)CC1)c1ccc(C(=O)O)cc1 [Example 156, 4-[(1S)-1-[[1-[(3R)-3-(3-Chlorophenoxy)pyrrolidin-1-yl]-4,4-difluorocyclohexane-1-carbonyl]amino]ethyl]benzoic acid, hydrochloride] |
| < 1000 | O=C(O)c1ccc(C2(NC(=O)C3(N4CCC[C@H](Oc5cccc(Cl)c5)C4)CCOCC3)CC2)cc1 [Example 135, 4-[1-[[4-[(3S)-3-(3-Chlorophenoxy)-1-piperidyl]tetrahydropyran-4-carbonyl]amino]cyclopropyl]benzoic acid, hydrochloride] |
| < 100 | Cc1cccc(OCCN(C)C2(C(=O)N[C@@H](C)c3ccc(C(=O)O)cc3)CCCCC2)c1 [Example 59, 4-[(1S)-1-[[1-[Methyl-[2-(3-methylphenoxy)ethyl]amino]cyclohexanecarbonyl]amino]ethyl]benzoic acid, hydrochloride] |
| < 100 | Cc1cccc(O[C@@H]2CCN(C3(C(=O)NC4(c5ccc(C(=O)O)cc5)CC4)CCOCC3)C2)c1 [Example 151, 4-[1-[[4-[(3R)-3-(3-Methylphenoxy)pyrrolidin-1-yl]tetrahydropyran-4-carbonyl]amino]cyclopropyl]benzoic acid, hydrochloride] |
| < 100 | C[C@H](NC(=O)C1(NCCOc2cc(F)cc(F)c2)CCOCC1)c1ccc(C(=O)O)cc1 [Example 16, 4-[(1S)-1-[[4-[2-(3,5-Difluorophenoxy)ethylamino]tetrahydropyran-4-carbonyl]amino]ethyl]benzoic acid, hydrochloride] |
| < 100 | C[C@H](NC(=O)C1(N2CC[C@@H](Oc3cccc(C(F)(F)F)c3)C2)CCOCC1)c1ccc(S(C)(=N)=O)cc1 (stereo partly drawn) [Example 180, N-((1S)-1-(4-(S-Methylsulfonimidoyl)phenyl)ethyl)-4-((R)-3-(3-(trifluoromethyl)phenoxy)pyrrolidin-1-yl)tetrahydro-2H-pyran-4-carboxamide, hydrochloride] |
| < 1000 | C[C@H](NC(=O)C1(c2cccc(OCC3CCCCC3)c2)CCOCC1)c1ccc(C(=O)O)cc1 [Example 97, 4-[(1S)-1-[[4-[3-(Cyclohexylmethoxy)phenyl]tetrahydropyran-4-carbonyl]amino]ethyl]benzoic acid] |
| < 1000 | CCCN(CCOc1ccccc1)C1(C(=O)NC2(c3ccc(C(=O)O)cc3)CC2)CCOCC1 [Example 26, 4-[1-[[4-[Propyl(2-phenoxyethyl)amino]tetrahydropyran-4-carbonyl]amino]cyclopropyl]benzoic acid, hydrochloride] |
| < 100 | C[C@H](NC(=O)C1(N2CC[C@@H](OC3CCCCC3)C2)CCOCC1)c1ccc(C(=O)O)cc1 [Example 154, 4-[(1S)-1-[[4-[(3R)-3-(Cyclohexyloxy]pyrrolidin-1-yl]tetrahydropyran-4-carbonyl]amino]ethyl]benzoic acid, hydrochloride] |
| < 100 | C[C@H](NC(=O)C1(N2CC[C@@H](Oc3cccc(C(F)(F)F)c3)C2)CCC1)c1ccc(C(N)=O)cc1 [Example 171, 4-[(1S)-1-[[1-[(3R)-3-[3-(Trifluoromethyl)phenoxy]pyrrolidin-1-yl]cyclobutane-1-carbonyl]amino]ethyl]benzamide, hydrochloride] |
| < 100 | C[C@H](NC(=O)C(C)(C)N1CC[C@@H](Oc2cccc(C(F)(F)F)c2)C1)c1ccc(C(=O)O)cc1 [Example 167, hydrochloride] |
| < 100 | C[C@H](NC(=O)C1(NCCOc2cccc(C(F)(F)F)c2)CCOCC1)c1ccc(C(=O)O)cc1 [Example 12, 4-[(1S)-1-[[4-[2-[3-(Trifluoromethyl)phenoxy]ethylamino]tetrahydropyran-4-carbonyl]amino]ethyl]benzoic acid] |
| < 1000 | CC(C)CCOc1cccc(C2(C(=O)N[C@@H](C)c3ccc(C(=O)O)cc3)CCOCC2)c1 [Example 104, 4-[(1S)-1-[[4-(3-Isopentyloxyphenyl)tetrahydropyran-4-carbonyl]amino]ethyl]benzoic acid] |
| < 1000 | COc1ccc(OCCN(C)C2(C(=O)NC3(c4ccc(C(=O)O)cc4)CC3)CCOCC2)cc1 [Example 40, 4-[1-[[4-[2-(4-Methoxyphenoxy)ethyl-methyl-amino]tetrahydropyran-4-carbonyl]amino]cyclopropyl]benzoic acid, hydrochloride] |

| IC50 [nM] | SMILES |
| --- | --- |
| < 100 | CN(CCOc1ccccc1)C1(C(=O)NC2(c3ccc(C(=O)O)cc3F)CC2)CCOCC1 [Example 50, 3-Fluoro-4-[1-[[4-[methyl(2-phenoxyethyl)amino]tetrahydropyran-4-carbonyl]amino]cyclopropyl]benzoic acid, hydrochloride] |
| < 100 | C[C@H](NC(=O)C1(N2CC[C@@H](Oc3cccc(Cl)c3)C2)CCCCC1)c1ccc(C(=O)O)cc1 [Example 155, 4-[(1S)-1-[[1-[(3R)-3-(3-Chlorophenoxy)pyrrolidin-1-yl]cyclohexane-1-carbonyl]amino]ethyl]benzoic acid, hydrochloride] |
| < 100 | C[C@H](NC(=O)C1(NCCOc2cccc(Cl)c2)CCCC1)c1ccc(C(=O)O)cc1 [Example 63, 4-[(1S)-1-[[1-[2-(3-Chlorophenoxy)ethylamino]cyclopentanecarbonyl]amino]ethyl]benzoic acid, hydrochloride] |
| < 1000 | C[C@H](NC(=O)C1(N2CC[C@@H](Oc3cccc(C(F)(F)F)c3)C2)CCOCC1)c1ccc(F)cc1 [Example 187, N—((S)-1-(4-Fluorophenyl)ethyl)-4-((R)-3-(3-(trifluoromethyl)phenoxy)pyrrolidin-1-yl)tetrahydro-2H-pyran-4-carboxamide, hydrochloride] |
| < 100 | C[C@H](NC(=O)C1(N(C)CCOc2cccc(Cl)c2)CCOCC1)c1ccc(C(=O)O)cc1 [Example 9, 4-[(1S)-1-[[4-[2-(3-Chlorophenoxy)ethyl-methyl-amino]tetrahydropyran-4-carbonyl]amino]ethyl]benzoic acid, hydrochloride] |
| < 1000 | C[C@H](NC(=O)C1(c2ccc(OCCc3ccccc3)cc2)CCOCC1)c1ccc(C(=O)O)cc1 [Example 94] |
| < 100 | CN(CCOc1ccccc1OC(F)(F)F)C1(C(=O)NC2(c3ccc(C(=O)O)cc3)CC2)CCOCC1 [Example 44, 4-[1-[[4-[2-(2-Trifluoromethoxyphenoxy)ethyl-methyl-amino]tetrahydropyran-4-carbonyl]amino]cyclopropyl]benzoic acid, hydrochloride] |
| < 100 | COc1ccc([C@H](C)NC(=O)C2(N3CC[C@@H](Oc4cccc(C(F)(F)F)c4)C3)CCOCC2)cc1 [Example 195, N—((S)-1-(4-Methoxyphenyl)ethyl)-4-((R)-3-(3-(trifluoromethyl)phenoxy)pyrrolidin-1-yl)tetrahydro-2H-pyran-4-carboxamide, hydrochloride] |
| < 1000 | C[C@H](NC(=O)C1(c2cccc(OCC3CCOCC3)c2)CCOCC1)c1ccc(C(=O)O)cc1 [Example 98, 4-[(1S)-1-[[4-[3-(Tetrahydropyran-4-ylmethoxy)phenyl]tetrahydropyran-4-carbonyl]amino]ethyl]benzoic acid] |
| < 1000 | CN(CCOc1ccc(Cl)cc1)C1(C(=O)NC2(c3ccc(C(=O)O)cc3)CC2)CCOCC1 [Example 31, 4-[1-[[4-[2-(4-Chlorophenoxy)ethyl-methyl-amino]tetrahydropyran-4-carbonyl]amino]cyclopropyl]benzoic acid, hydrochloride] |
| < 1000 | C[C@H](NC(=O)C1(c2cc(OCC3CCCCC3)ccn2)CCOCC1)c1ccc(C(=O)O)cc1 [Example 117, 4-[(1S)-1-[[4-[4-(Cyclohexylmethoxy)-2-pyridyl]tetrahydropyran-4-carbonyl]amino]ethyl]benzoic acid] |
| < 1000 | CN(CCOc1ccccc1)C1(C(=O)NC2(c3ccc(C(=O)O)cc3)CC2)CCOC1 (centres unmarked) [Example 76, 4-[1-[[3-[Methyl(2-phenoxyethyl)amino]tetrahydrofuran-3-carbonyl]amino]cyclopropyl]benzoic acid, hydrochloride] |
| < 100 | C[C@H](NC(=O)C1(N2CC[C@@H](Oc3cccc(Cl)c3)C2)CCCC1)c1ccc(C(=O)O)cc1 [Example 157, 4-[(1S)-1-[[1-[(3R)-3-(3-Chlorophenoxy)pyrrolidin-1-yl]cyclopentane-1-carbonyl]amino]ethyl]benzoic acid, hydrochloride] |
| < 1000 | C[C@H](NC(=O)C1(N2CC[C@@H](Oc3cccc(C(F)(F)F)c3)C2)CCOCC1)c1cccc(F)c1 [Example 188, N—((S)-1-(3-Fluorophenyl)ethyl)-4-((R)-3-(3-(trifluoromethyl)phenoxy)pyrrolidin-1-yl)tetrahydro-2H-pyran-4-carboxamide, hydrochloride] |
| < 100 | CCN(CCOc1cccc(Cl)c1)C1(C(=O)N[C@@H](C)c2ccc(C(=O)O)cc2)CCOCC1 [Example 10, 4-[(1S)-1-[[4-[2-(3-Chlorophenoxy)ethyl-ethyl-amino]tetrahydropyran-4-carbonyl]amino]ethyl]benzoic acid, hydrochloride] |
| < 1000 | C[C@H](NC(=O)C1(c2cccc(OCCC3CCCCC3)c2)CCOCC1)c1ccc(C(=O)O)cc1 [Example 105, 4-[(1S)-1-[[4-[3-(2-Cyclohexylethoxy)phenyl]tetrahydropyran-4-carbonyl]amino]ethyl]benzoic acid] |

Source: US12527779B2, “Prostaglandin E2 (PGE2) EP4 receptor antagonists” (Domain Therapeutics, priority 2019, dated 2026)
